Assay results from the NIST ThermoML archive (doi:10.1021/je201193d).
± gives the expanded uncertainty stated by the source.

Details: Crystal; visual observation

Structure (SMILES)	Normal melting temperature [°C]
CCC(=O)O [propanoic acid]	-20.60 ± 0.39
C=CC(=O)O [propenoic acid]	12.8 ± 0.39
